ChEMBL document CHEMBL3046894, “Synthesis and Herbicidal Activity of Pyrimidinyl Salicylic and Thiosalicylic Acids” (J Pestic Sci, 1996)
Activity calls are given as the source filed them. No cut-off for these calls is given here.

Experiments:
Ipomoea lacunosa [1] = experiment: Pre-emergence herbicidal activity against Ipomoea lacunosa assessed as mortality at 1.6 g a.i/10 a; format: functional
Abutilon theophrasti [2] = experiment: Post-emergence herbicidal activity against Abutilon theophrasti (velvetleaf) assessed as mortality at 6.3 g a.i/10 a applied 11 days after germination as foliar spray; format: functional; conditions: 264 h
Zea mays [3] = experiment: (§1) Pre-emergence phytotoxicity against Zea mays (maize) assessed as mortality at 1.6 g a.i/10 a; format: organism-based; conditions: in vivo, other
[4] = (§2) Pre-emergence phytotoxicity against Gossypium hirsutum (cotton) assessed as mortality at 6.3 g a.i/10 a; format: organism-based; conditions: in vivo, 6.3 g a.i/10 a, read-out: Activity
Zea mays [5] = experiment: Pre-emergence phytotoxicity against Zea mays (maize) assessed as mortality at 6.3 g a.i/10 a; format: organism-based; conditions: in vivo, other
Xanthium strumarium [6] = experiment: Pre-emergence herbicidal activity against Xanthium strumarium (cocklebur) assessed as mortality at 1.6 g a.i/10 a; format: functional
Glycine max [7] = experiment: (§3) Post-emergence phytotoxicity against Glycine max (soybean) assessed as mortality at 1.6 g a.i/10 a applied 11 days after germination as foliar spray; format: organism-based; conditions: in vivo, other, 264 h
Glycine max [8] = experiment: Post-emergence phytotoxicity against Glycine max (soybean) assessed as mortality at 6.3 g a.i/10 a applied 11 days after germination as foliar spray; format: organism-based; conditions: in vivo, other, 264 h
Gossypium hirsutum [9] = experiment: Pre-emergence phytotoxicity against Gossypium hirsutum (cotton) assessed as mortality at 1.6 g a.i/10 a; format: organism-based; conditions: in vivo, other
[10] = (§4) Post-emergence phytotoxicity against Gossypium hirsutum (cotton) assessed as mortality at 1.6 g a.i/10 a applied 11 days after germination as foliar spray; format: organism-based; conditions: in vivo, 1.6 g a.i/10 a
[11] = Post-emergence phytotoxicity against Zea mays (maize) assessed as mortality at 1.6 g a.i/10 a applied 11 days after germination as foliar spray; format: organism-based; conditions: in vivo, 1.6 g a.i/10 a
[12] = (§5) Post-emergence phytotoxicity against Gossypium hirsutum (cotton) assessed as mortality at 6.3 g a.i/10 a applied 11 days after germination as foliar spray; format: organism-based; conditions: in vivo, 6.3 g a.i/10 a
Glycine max [13] = experiment: (§6) Pre-emergence phytotoxicity against Glycine max (soybean) assessed as mortality at 6.3 g a.i/10 a; format: organism-based; conditions: in vivo, other
Glycine max [14] = experiment: Pre-emergence phytotoxicity against Glycine max (soybean) assessed as mortality at 1.6 g a.i/10 a; format: organism-based; conditions: in vivo, other
Cyperus iria [15] = experiment: Pre-emergence herbicidal activity against Cyperus iria assessed as growth inhibition at 25 g a.i/10 a; format: functional, organism-based
Echinochloa crus-galli [16] = experiment: Pre-emergence herbicidal activity against Echinochloa crus-galli (barnyard grass) assessed as mortality at 6.3 g a.i/10 a; format: functional; conditions: Echinochloa crus-galli, pre-emergence
Digitaria sanguinalis [17] = experiment: Pre-emergence herbicidal activity against Digitaria sanguinalis (hairy crabgrass) assessed as growth inhibition at 25 g a.i/10 a; format: functional, organism-based
Ipomoea lacunosa [18] = experiment: Pre-emergence herbicidal activity against Ipomoea lacunosa assessed as mortality per 10 acre; format: functional
[19] = as §1; format: organism-based; conditions: in vivo, 1.6 g a.i/10 a, read-out: mortality
Xanthium strumarium [20] = experiment: Pre-emergence herbicidal activity against Xanthium strumarium (cocklebur) assessed as mortality per 10 acre; format: functional
Abutilon theophrasti [21] = experiment: Post-emergence herbicidal activity against Abutilon theophrasti (velvetleaf) assessed as mortality at 1.6 g a.i/10 a applied 11 days after germination as foliar spray; format: functional; conditions: 264 h
Gossypium hirsutum [22] = experiment: as §2; format: organism-based; conditions: in vivo, other
Echinochloa crus-galli [23] = experiment: Pre-emergence herbicidal activity against Echinochloa crus-galli (barnyard grass) assessed as mortality per 10 acre; format: functional
Cyperus iria [24] = experiment: Post-emergence herbicidal activity against Cyperus iria assessed as growth inhibition at 25 g a.i/10 a applied 11 days after germination as foliar spray; format: functional, organism-based
Gossypium hirsutum [25] = experiment: Post-emergence phytotoxicity against Gossypium hirsutum (cotton) assessed as mortality per 10 acre; format: organism-based; conditions: in vivo
Persicaria nodosa [26] = experiment: Pre-emergence herbicidal activity against Persicaria nodosa assessed as mortality per 10 acre; format: functional
Echinochloa crus-galli [27] = experiment: Post-emergence herbicidal activity against Echinochloa crus-galli (barnyard grass) assessed as mortality at 6.3 g a.i/10 a applied 11 days after germination as foliar spray; format: functional; conditions: 264 h
Xanthium strumarium [28] = experiment: Post-emergence herbicidal activity against Xanthium strumarium (cocklebur) assessed as mortality per 10 acre; format: functional
Ipomoea lacunosa [29] = experiment: Post-emergence herbicidal activity against Ipomoea lacunosa assessed as mortality per 10 acre; format: functional
Echinochloa crus-galli [30] = experiment: Post-emergence herbicidal activity against Echinochloa crus-galli (barnyard grass) assessed as growth inhibition at 25 g a.i/10 a applied 11 days after germination as foliar spray; format: functional, organism-based
Persicaria nodosa [31] = experiment: Post-emergence herbicidal activity against Persicaria nodosa assessed as growth inhibition at 25 g a.i/10 a applied 11 days after germination as foliar spray; format: functional, organism-based
Chenopodium album [32] = experiment: Post-emergence herbicidal activity against Chenopodium album assessed as growth inhibition at 25 g a.i/10 a applied 11 days after germination as foliar spray; format: functional, organism-based
[33] = as §3; format: organism-based; conditions: in vivo, 1.6 g a.i/10 a
Persicaria nodosa [34] = experiment: Pre-emergence herbicidal activity against Persicaria nodosa assessed as growth inhibition at 25 g a.i/10 a; format: functional, organism-based
Persicaria nodosa [35] = experiment: Post-emergence herbicidal activity against Persicaria nodosa assessed as mortality per 10 acre; format: functional
Amaranthus retroflexus [36] = experiment: Post-emergence herbicidal activity against Amaranthus retroflexus assessed as mortality per 10 acre; format: functional
Amaranthus retroflexus [37] = experiment: Pre-emergence herbicidal activity against Amaranthus retroflexus assessed as mortality per 10 acre; format: functional
Abutilon theophrasti [38] = experiment: Pre-emergence herbicidal activity against Abutilon theophrasti (velvetleaf) assessed as mortality at 6.3 g a.i/10 a; format: functional; conditions: Abutilon theophrasti, pre-emergence
Amaranthus retroflexus [39] = experiment: Post-emergence herbicidal activity against Amaranthus retroflexus assessed as growth inhibition at 25 g a.i/10 a applied 11 days after germination as foliar spray; format: functional, organism-based
Gossypium hirsutum [40] = experiment: as §4; format: organism-based; conditions: in vivo, other, 264 h
Amaranthus retroflexus [41] = experiment: Pre-emergence herbicidal activity against Amaranthus retroflexus assessed as growth inhibition at 25 g a.i/10 a; format: functional, organism-based
Echinochloa crus-galli [42] = experiment: Post-emergence herbicidal activity against Echinochloa crus-galli (barnyard grass) assessed as mortality per 10 acre; format: functional
Gossypium hirsutum [43] = experiment: as §5; format: organism-based; conditions: in vivo, other, 264 h
Digitaria sanguinalis [44] = experiment: Post-emergence herbicidal activity against Digitaria sanguinalis (hairy crabgrass) assessed as growth inhibition at 25 g a.i/10 a applied 11 days after germination as foliar spray; format: functional, organism-based
Gossypium hirsutum [45] = experiment: Pre-emergence phytotoxicity against Gossypium hirsutum (cotton) assessed as mortality per 10 acre; format: organism-based; conditions: in vivo
[46] = as §6; format: organism-based; conditions: in vivo, 6.3 g a.i/10 a, read-out: mortality
Echinochloa crus-galli [47] = experiment: Post-emergence herbicidal activity against Echinochloa crus-galli (barnyard grass) assessed as mortality at 1.6 g a.i/10 a applied 11 days after germination as foliar spray; format: functional; conditions: 264 h
Chenopodium album [48] = experiment: Pre-emergence herbicidal activity against Chenopodium album assessed as growth inhibition at 25 g a.i/10 a; format: functional, organism-based
Echinochloa crus-galli [49] = experiment: Pre-emergence herbicidal activity against Echinochloa crus-galli (barnyard grass) assessed as growth inhibition at 25 g a.i/10 a; format: functional, organism-based

COc1cc(OC)nc(Sc2cccc(I)c2C(=O)O)n1
Activity (Ipomoea lacunosa [1]): <50% | mortality at 63 g/ha (Abutilon theophrasti [2]): > 90% | Activity (Zea mays [3]): Toxic | mortality [4]: < 50% | Activity (Zea mays [5]): > 90% | Activity (Xanthium strumarium [6]): <50% | Activity (Glycine max [7]): Toxic | Activity (Glycine max [8]): Toxic | Activity (Gossypium hirsutum [9]): < 50% | mortality at 264 h [10]: < 5% | mortality at 264 h [11]: > 90% | mortality at 264 h [12]: < 5% | Activity (Glycine max [13]): Toxic | Activity (Glycine max [14]): Non-toxic

COc1cc(OC)nc(Oc2cccc(Cl)c2C(=O)O)n1
growth inhibition (GI) (Cyperus iria [15]): Active | mortality at 63 g/ha (Echinochloa crus-galli [16]): > 90% | growth inhibition (GI) (Digitaria sanguinalis [17]): Active | ED90 (Ipomoea lacunosa [18]): 25 gAi | mortality at 63 g/ha (Abutilon theophrasti [2]): > 90% | mortality [19]: > 90% | ED90 (Xanthium strumarium [20]): 25 gAi | mortality at 16 g/ha (Abutilon theophrasti [21]): > 90% | Activity (Gossypium hirsutum [22]): Non-toxic | ED90 (Echinochloa crus-galli [23]): inactive | growth inhibition (GI) (Cyperus iria [24]): Active | ED20 (Gossypium hirsutum [25]): 0.2 gAi | ED90 (Persicaria nodosa [26]): 0.4 gAi | mortality at 63 g/ha (Echinochloa crus-galli [27]): > 90% | ED90 (Xanthium strumarium [28]): 1.5 gAi | ED90 (Ipomoea lacunosa [29]): 0.8 gAi | growth inhibition (GI) (Echinochloa crus-galli [30]): Active | growth inhibition (GI) (Persicaria nodosa [31]): Active | growth inhibition (GI) (Chenopodium album [32]): Active | mortality at 264 h [33]: > 90% | growth inhibition (GI) (Persicaria nodosa [34]): Active | ED90 (Persicaria nodosa [35]): 0.2 gAi | ED90 (Amaranthus retroflexus [36]): 0.2 gAi | ED90 (Amaranthus retroflexus [37]): 0.4 gAi | mortality at 63 g/ha (Abutilon theophrasti [38]): > 90% | growth inhibition (GI) (Amaranthus retroflexus [39]): Active | Activity (Gossypium hirsutum [9]): Non-toxic | Activity (Gossypium hirsutum [40]): Toxic | growth inhibition (GI) (Amaranthus retroflexus [41]): Active | ED90 (Echinochloa crus-galli [42]): 1.5 gAi | mortality at 264 h [11]: > 90% | Activity (Gossypium hirsutum [43]): Toxic | growth inhibition (GI) (Digitaria sanguinalis [44]): Active | ED20 (Gossypium hirsutum [45]): Toxic | mortality [46]: > 90% | mortality at 16 g/ha (Echinochloa crus-galli [47]): > 90% | growth inhibition (GI) (Chenopodium album [48]): Active | Activity (Glycine max [14]): Toxic | growth inhibition (GI) (Echinochloa crus-galli [49]): Active
